What was measured:
Experiment in all cases: JAK Caliper Enzyme Assay at 1 mM ATP
Details in all cases: pH 7.4; 25 °C
[1] = molecular target: Non-receptor tyrosine-protein kinase TYK2 (Homo sapiens, UniProt P29597)
Experimental: (§1) Test article was solubilized in dimethyl sulfoxide (DMSO) to a stock concentration of 30 mM. An 11-point half log dilution series was created in DMSO with a top concentration of 600 μM. […] The compound plates were diluted 1 to 60 resulting in a top final assay compound concentration of 10 μM and a 2% DMSO concentration.Test article and assay controls were added to a 384-well plate. Reaction mixtures contained 20 mM HEPES, pH 7.4, 10 mM magnesium chloride, 0.01% bovine serum albumin (BSA), 0.0005% Tween 20, 1 mM ATP and 1 μM peptide substrate. […] Enzyme concentrations and incubation times were optimized for each new enzyme preps and were modified slightly over time to ensure 20%-30% phosphorylation. The assays were stopped with a final concentration of 10 mM EDTA, 0.1% Coating Reagent and 100 mM HEPES, pH=7.4. The assay plates were placed on a Caliper Life Science Lab Chip 3000 (LC3000) instrument, and each well was sampled using appropriate separation conditions to measure the unphosphorylated and phosphorylated peptide.

[2] = molecular target: Tyrosine-protein kinase JAK1 (Homo sapiens, UniProt P23458)
Experimental: as §1

[3] = molecular target: Tyrosine-protein kinase JAK2 (Homo sapiens, UniProt O60674)
Experimental: as §1

[4] = molecular target: T1, Tyrosine-protein kinase JAK3 (Homo sapiens, UniProt P52333)
T1 sequence (P52333 whole entry): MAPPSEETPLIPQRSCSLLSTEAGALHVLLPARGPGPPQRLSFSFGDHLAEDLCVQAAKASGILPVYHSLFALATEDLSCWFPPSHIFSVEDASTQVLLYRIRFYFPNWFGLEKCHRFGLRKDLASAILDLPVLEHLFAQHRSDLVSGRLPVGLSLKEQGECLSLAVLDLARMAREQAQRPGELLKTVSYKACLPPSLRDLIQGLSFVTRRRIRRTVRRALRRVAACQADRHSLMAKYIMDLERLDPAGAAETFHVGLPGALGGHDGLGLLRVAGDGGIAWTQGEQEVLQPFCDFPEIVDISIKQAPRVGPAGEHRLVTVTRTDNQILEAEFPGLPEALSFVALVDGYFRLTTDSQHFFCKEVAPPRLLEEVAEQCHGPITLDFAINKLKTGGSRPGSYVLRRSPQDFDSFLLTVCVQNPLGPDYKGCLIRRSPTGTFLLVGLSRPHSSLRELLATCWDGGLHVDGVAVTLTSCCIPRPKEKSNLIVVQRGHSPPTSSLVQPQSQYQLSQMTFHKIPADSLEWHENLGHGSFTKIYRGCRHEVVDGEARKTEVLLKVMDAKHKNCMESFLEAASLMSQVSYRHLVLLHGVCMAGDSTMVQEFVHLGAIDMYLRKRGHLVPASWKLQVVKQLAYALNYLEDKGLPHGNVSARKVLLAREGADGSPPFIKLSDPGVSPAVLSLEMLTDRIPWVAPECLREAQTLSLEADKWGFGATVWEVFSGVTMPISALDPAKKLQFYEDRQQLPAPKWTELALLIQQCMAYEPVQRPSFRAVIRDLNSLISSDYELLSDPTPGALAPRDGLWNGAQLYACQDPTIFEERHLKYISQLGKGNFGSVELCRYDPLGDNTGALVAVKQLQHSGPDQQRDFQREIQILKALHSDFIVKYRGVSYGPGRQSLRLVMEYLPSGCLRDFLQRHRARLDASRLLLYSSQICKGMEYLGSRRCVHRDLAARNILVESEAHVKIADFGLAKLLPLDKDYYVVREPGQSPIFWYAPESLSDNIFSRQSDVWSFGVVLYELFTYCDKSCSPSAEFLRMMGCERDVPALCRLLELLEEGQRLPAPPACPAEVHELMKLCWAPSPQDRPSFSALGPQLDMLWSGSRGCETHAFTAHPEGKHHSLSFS
Experimental: as §1

Sequence of Tyrosine-protein kinase JAK1 (P23458 whole entry): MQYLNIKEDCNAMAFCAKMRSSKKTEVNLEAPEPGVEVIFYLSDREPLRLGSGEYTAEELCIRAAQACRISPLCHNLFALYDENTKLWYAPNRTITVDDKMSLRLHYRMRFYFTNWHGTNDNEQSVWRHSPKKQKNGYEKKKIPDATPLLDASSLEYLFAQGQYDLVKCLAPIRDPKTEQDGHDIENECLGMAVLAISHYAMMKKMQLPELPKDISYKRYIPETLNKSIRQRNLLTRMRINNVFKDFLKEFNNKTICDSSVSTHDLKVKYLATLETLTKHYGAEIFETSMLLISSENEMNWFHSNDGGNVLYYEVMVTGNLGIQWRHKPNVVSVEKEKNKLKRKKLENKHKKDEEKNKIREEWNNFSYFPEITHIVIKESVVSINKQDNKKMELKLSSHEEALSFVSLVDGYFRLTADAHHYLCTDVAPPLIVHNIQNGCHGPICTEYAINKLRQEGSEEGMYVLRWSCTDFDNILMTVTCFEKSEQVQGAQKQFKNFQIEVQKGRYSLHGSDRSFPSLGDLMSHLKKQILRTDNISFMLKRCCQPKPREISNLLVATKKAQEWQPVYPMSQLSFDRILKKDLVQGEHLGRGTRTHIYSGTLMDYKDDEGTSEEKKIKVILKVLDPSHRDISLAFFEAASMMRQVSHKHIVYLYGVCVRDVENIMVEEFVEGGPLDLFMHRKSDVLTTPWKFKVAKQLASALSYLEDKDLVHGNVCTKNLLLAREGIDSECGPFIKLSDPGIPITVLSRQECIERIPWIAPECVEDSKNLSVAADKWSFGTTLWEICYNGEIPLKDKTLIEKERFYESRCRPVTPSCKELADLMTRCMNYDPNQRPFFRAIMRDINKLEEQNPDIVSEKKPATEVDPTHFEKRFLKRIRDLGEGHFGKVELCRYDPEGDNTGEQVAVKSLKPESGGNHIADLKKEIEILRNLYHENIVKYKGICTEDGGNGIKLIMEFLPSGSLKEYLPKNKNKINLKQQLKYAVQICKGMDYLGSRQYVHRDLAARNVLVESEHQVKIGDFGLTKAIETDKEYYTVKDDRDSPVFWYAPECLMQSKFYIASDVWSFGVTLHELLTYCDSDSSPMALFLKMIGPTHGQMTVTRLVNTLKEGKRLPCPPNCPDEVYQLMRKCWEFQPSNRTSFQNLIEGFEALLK
Sequence of Non-receptor tyrosine-protein kinase TYK2 (P29597 whole entry): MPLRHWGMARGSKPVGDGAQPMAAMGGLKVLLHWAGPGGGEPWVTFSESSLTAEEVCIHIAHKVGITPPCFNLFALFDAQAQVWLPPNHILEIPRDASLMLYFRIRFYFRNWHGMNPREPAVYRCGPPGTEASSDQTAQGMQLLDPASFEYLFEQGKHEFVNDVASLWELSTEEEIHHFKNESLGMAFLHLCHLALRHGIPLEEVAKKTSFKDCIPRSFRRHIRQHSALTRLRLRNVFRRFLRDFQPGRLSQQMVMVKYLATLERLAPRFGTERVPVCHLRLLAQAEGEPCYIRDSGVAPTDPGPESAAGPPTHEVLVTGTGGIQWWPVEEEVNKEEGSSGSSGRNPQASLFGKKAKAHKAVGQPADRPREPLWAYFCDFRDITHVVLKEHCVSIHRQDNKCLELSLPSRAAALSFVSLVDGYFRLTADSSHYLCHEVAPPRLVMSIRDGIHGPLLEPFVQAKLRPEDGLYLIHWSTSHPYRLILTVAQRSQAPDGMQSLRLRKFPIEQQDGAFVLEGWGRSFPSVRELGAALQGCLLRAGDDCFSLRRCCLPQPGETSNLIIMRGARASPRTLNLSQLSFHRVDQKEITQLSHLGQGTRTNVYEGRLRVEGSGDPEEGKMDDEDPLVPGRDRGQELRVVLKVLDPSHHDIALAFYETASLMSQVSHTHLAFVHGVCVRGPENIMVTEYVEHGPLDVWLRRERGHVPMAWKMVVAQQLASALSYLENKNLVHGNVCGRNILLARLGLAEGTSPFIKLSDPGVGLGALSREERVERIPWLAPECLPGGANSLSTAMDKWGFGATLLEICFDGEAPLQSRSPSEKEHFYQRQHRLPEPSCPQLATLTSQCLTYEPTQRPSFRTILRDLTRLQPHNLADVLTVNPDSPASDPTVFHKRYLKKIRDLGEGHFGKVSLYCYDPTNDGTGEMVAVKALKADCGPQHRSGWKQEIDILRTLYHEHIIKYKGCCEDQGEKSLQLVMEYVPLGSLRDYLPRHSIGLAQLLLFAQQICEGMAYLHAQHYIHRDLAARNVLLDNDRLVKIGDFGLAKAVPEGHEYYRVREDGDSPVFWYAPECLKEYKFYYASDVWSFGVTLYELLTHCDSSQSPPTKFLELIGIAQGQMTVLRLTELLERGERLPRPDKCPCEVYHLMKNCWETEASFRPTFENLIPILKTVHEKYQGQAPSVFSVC
Sequence of Tyrosine-protein kinase JAK2 (O60674 whole entry): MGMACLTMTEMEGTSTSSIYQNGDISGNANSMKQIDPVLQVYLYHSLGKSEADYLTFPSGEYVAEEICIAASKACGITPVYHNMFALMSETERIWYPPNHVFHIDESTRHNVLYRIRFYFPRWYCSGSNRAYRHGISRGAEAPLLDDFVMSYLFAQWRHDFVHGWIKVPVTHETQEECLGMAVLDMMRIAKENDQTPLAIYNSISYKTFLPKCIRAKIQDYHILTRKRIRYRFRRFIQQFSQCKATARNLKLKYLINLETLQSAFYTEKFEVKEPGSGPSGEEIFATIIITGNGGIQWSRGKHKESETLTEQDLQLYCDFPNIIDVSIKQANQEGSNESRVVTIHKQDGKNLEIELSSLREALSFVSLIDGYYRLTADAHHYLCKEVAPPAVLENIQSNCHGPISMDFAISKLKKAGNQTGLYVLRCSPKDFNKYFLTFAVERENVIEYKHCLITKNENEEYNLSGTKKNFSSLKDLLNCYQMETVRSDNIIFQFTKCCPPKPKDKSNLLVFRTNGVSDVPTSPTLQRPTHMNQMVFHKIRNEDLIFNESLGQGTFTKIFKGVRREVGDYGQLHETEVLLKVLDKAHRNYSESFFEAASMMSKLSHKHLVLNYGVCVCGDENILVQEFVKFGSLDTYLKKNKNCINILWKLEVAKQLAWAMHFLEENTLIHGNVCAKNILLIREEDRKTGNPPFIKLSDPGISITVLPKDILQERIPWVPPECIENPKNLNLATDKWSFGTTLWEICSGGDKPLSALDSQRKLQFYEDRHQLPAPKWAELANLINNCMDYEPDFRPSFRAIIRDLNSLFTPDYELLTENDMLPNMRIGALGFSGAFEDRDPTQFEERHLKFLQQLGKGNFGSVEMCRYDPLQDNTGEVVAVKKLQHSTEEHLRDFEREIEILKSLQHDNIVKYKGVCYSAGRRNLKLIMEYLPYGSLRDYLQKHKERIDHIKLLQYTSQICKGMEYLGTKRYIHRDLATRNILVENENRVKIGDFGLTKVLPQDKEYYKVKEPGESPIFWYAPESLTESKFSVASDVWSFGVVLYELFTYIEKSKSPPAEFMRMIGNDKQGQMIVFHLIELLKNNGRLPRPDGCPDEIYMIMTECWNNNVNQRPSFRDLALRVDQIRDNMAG

Row | SMILES | IC50 [1] | IC50 [2] | IC50 [3] | IC50 [4]
1 | CN(c1cc(O)ccc1CNc1nc(-c2cc(F)c(O)cc2CC(F)(F)F)cc2[nH]nc(C(N)=O)c12)S(C)(=O)=O [US10022376, Example 99] | 426 nM | 6.8 nM | – | –
2 | CNC(=O)c1n[nH]c2nc(-c3cc(F)c(O)cc3CC(F)(F)F)nc(NCc3ccccc3N(CCO)S(C)(=O)=O)c12 [US10022376, Example 100] | 1150 nM | 8.7 nM | 32.3 nM | –
3 | CCN(c1ccc(O)cc1CNc1nc(-c2cc(F)c(O)cc2CC(F)(F)F)nc2[nH]nc(C(=O)NC)c12)S(=O)(=O)c1ccccc1 [US10022376, Example 75] | 1940 nM | 61.1 nM | 321 nM | 755 nM
4 | CN(c1ccccc1CNc1nc(-c2cc(F)c(O)cc2CC(F)(F)F)cc2[nH]nc(C(N)=O)c12)S(C)(=O)=O [US10022376, Example 98] | – | – | – | 39.6 nM
5 | CN(C)CCNC(=O)N1CCc2[nH]c(-c3n[nH]c4nc(-c5cc(F)c(O)cc5CC(F)(F)F)nc(NCc5cc(O)ccc5N(C)S(C)(=O)=O)c34)nc2C1 [US10022376, Example 110] | 35 nM | 5.4 nM | 26.9 nM | –
6 | CNC(=O)c1n[nH]c2nc(-c3cc(F)c(O)cc3CC(F)(F)F)nc(NCc3nccnc3N(C)S(C)(=O)=O)c12 [US10022376, Example 106] | 6110 nM | 41.2 nM | 283 nM | –
7 | CC(=O)N1CCc2[nH]c(-c3n[nH]c4nc(-c5cc(F)c(O)cc5CC(F)(F)F)nc(NCc5cc(O)ccc5N(C)S(C)(=O)=O)c34)nc2C1 [US10022376, Example 105] | 14 nM | – | 14.4 nM | 51.2 nM
8 | CN(c1ccc(O)cc1CNc1nc(-c2cc(F)c(O)cc2CC(F)(F)F)nc2[nH]nc(C(=O)Nc3ccc(NCCO)nc3)c12)S(C)(=O)=O [US10022376, Example 169] | 306 nM | 10.5 nM | – | 59.8 nM
9 | CN(c1ccc(O)cc1CNc1nc(-c2cc(F)c(O)cc2CC(F)(F)F)cc2[nH]nc(C(=O)Nc3ccc(NCCO)nc3)c12)S(C)(=O)=O [US10022376, Example 164] | 24.2 nM | 4.5 nM | 22.2 nM | 91 nM
10 | CCN(c1ccc(O)cc1CNc1nc(-c2cc(F)c(O)cc2CC(F)(F)F)nc2[nH]nc(C(N)=O)c12)S(=O)(=O)c1ccccc1 [US10022376, Example 97] | 2190 nM | 55.1 nM | – | –
11 | CN(c1ccc(O)cc1CNc1nc(-c2cc(F)c(O)cc2CC(F)(F)F)nc2[nH]nc(C(N)=O)c12)S(=O)(=O)c1ccccc1 [US10022376, Example 96] | 1730 nM | – | – | 248 nM

From BindingDB's records for patent US10022376 (Pfizer, 2018)
